The test system of one series is human subjects. The experiment in a line: Gastrointestinal tolerance study of iced cupcakes (Test Protocol 1; randomized, double-blind, crossover). The format is in vivo. The note with it: after 24 hours; compared to SWEETENER 1. An excerpt:
In many embodiments, the sweetener compositions of the invention have improved gastrointestinal tolerance in humans. For example, the sweetener compositions of the invention have improved gastrointestinal tolerance as compared to maltitol. Gastrointestinal tolerance can be measured, for example, using a randomized, double blind, crossover, repeated measure design protocol, such described in Test Protocol 1 in the Example section of the application. In a representative test, a test food comprising a sweetener to be tested is consumed by human subjects, and the subjects are required to complete a gastrointestinal survey at various intervals, prior to and after, consuming the test food. For example, the human subject may complete the survey at 0 hours (i.e., just prior to consuming the test food), 2 hours, 6 hours, 12 hours, and 24 hours after consuming the test food. The food is then rated at the various time periods for gastrointestinal tolerance as evidenced by gastrointestinal effects such as gastrointestinal rumbling, abdominal cramping, gas/bloating, excessive flatulence, loose stools, and diarrhea. […]
The study used a randomized, double-blind, crossover, repeated measure design. […] Diarrhea was recorded as a yes/no response. […]

For series [1] the following is noted: in vivo; cited from earlier work.

Molecules are shown by their SMILES.

`OC[C@@H](O)[C@@H](O[C@H]1O[C@H](CO)[C@@H](O)[C@H](O)[C@H]1O)[C@H](O)[C@@H](O)CO` [COMP. SWEETENER A, Maltitol]: the abdominal cramping entry with human subjects is listed as “Significantly milder”.

With `OC[C@@H](O)[C@@H](O)CO` [Erythritol], the “fraction absorbed in the small intestine and excreted unchanged in the urine” value in series [1] is reported as “about 90%”.
